Here are results for twelve compounds from ChEMBL document CHEMBL2074130, “Reversal of breast cancer resistance protein-mediated drug resistance by estrogen antagonists and agonists” (Mol Cancer Ther, 2003).

Data set [1] has as its target T1, Broad substrate specificity ATP-binding cassette transporter ABCG2 (Homo sapiens, UniProt Q9UNQ0).
T1 sequence (Q9UNQ0 whole entry): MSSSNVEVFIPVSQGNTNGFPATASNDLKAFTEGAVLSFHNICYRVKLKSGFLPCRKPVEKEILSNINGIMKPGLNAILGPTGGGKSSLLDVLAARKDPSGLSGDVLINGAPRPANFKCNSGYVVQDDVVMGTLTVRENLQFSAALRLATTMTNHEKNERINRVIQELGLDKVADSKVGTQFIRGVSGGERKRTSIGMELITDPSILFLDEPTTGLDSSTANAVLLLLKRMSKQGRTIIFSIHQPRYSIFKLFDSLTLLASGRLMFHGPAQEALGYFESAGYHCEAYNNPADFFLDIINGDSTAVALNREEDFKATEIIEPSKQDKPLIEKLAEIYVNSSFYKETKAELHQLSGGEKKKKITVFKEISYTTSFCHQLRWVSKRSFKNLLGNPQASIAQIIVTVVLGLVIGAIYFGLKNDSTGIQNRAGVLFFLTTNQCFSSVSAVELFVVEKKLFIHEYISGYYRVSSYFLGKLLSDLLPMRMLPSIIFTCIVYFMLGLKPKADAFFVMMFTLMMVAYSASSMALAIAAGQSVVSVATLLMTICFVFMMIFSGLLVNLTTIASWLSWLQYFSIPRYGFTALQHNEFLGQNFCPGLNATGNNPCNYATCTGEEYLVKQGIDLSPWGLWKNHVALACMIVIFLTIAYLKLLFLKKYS
Briefly: TP_TRANSPORTER: inhibition of topotecan uptake in BCRP-expressing K562 cells. Type of data set: functional, cell-based.

Data set [2] deals with T1, Broad substrate specificity ATP-binding cassette transporter ABCG2. Put plainly: TP_TRANSPORTER: drug resistance in BCRP-expressing K562 cells. Format: functional, cell-based.

In the case of `CCC(=O)Oc1ccc(/C(CC)=C(\CC)c2ccc(OC(=O)CC)cc2)cc1` [DIETHYLSTILBESTROL DIPROPIONATE], the Activity entry in data set [1] is “inhibitor []”.
Take `O=C1c2c(O)ccc(O)c2C(=O)c2c(NCCNCCO)ccc(NCCNCCO)c21` [MITOXANTRONE]: the Activity result in data set [2] was “substrate []”.
On to `CC/C(=C(\c1ccc(O)cc1)c1ccc(OCCNC)cc1)c1ccc(C(C)CO)cc1` (configuration not stated), for which the Activity entry in data set [1] was “inhibitor []”.
Take `CC/C(=C(/c1ccc(OCCN(C)C)cc1)c1ccc(OCc2ccc([N+](=O)[O-])cc2)cc1)c1ccccc1`: the Activity entry in data set [1] is “inhibitor []”.
Same read-out and setting: next, `CC/C(=C(\c1ccc(O)cc1)c1ccc(OCCN(C)C)cc1)c1ccc(OCc2ccccc2)cc1`: “inhibitor []”.
`CC/C(=C(/CC)c1ccc(O)cc1)c1ccc(O)cc1` [DIETHYLSTILBESTROL]: the Activity result in data set [1] was “inhibitor []”.
Same read-out and setting: next, `CC/C(=C(/c1ccc(OCCN(C)C)cc1)c1ccc(OCc2ccccc2)cc1)c1ccccc1`: “inhibitor []”.
For the compound `CC/C(=C(\c1ccc(O)cc1)c1ccc(OCCN(C)C)cc1)c1ccc(C(C)C)cc1` [MIPROXIFENE], in data set [1], the Activity entry was “inhibitor []”.
For `C[C@]12CC[C@@H]3c4ccc(O)cc4CC[C@H]3[C@@H]1CCC2=O` [ESTRONE], in data set [1], the Activity entry was “inhibitor []”.
Turning to `CCc1c2c(nc3ccc(O)cc13)-c1cc3c(c(=O)n1C2)COC(=O)[C@]3(O)CC` [7-ETHYL-10-HYDROXYCAMPTOTHECIN], the Activity result in data set [2] is “substrate []”.
For `CC[C@@]1(O)C(=O)OCc2c1cc1n(c2=O)Cc2cc3c(CN(C)C)c(O)ccc3nc2-1` [TOPOTECAN], the Activity entry in data set [2] is “substrate []”.
For `CC/C(=C(\c1ccc(O)cc1)c1ccc(OCCN(C)C)cc1)c1ccc(OC)cc1`, in data set [1], the Activity result was “inhibitor []”.
